Data on 28 compounds can be found in patent US9487510B2, “Substituted heterocyclic acetamides as kappa opioid receptor (KOR) agonists” (Dr. Reddy's Laboratories Ltd., priority 2012, dated 2016).

This assay concerns the target human KOR receptor (Homo sapiens, UniProt P41145). In words: IP-One HTRF assay, potency of KOR agonists, dose-response in transiently transfected COS-7 cells. Type of assay: cell-based. (In general: Time-resolved FRET reads energy transfer from a long-lived donor to a nearby acceptor.)

Sequence of human KOR receptor (P41145 whole entry): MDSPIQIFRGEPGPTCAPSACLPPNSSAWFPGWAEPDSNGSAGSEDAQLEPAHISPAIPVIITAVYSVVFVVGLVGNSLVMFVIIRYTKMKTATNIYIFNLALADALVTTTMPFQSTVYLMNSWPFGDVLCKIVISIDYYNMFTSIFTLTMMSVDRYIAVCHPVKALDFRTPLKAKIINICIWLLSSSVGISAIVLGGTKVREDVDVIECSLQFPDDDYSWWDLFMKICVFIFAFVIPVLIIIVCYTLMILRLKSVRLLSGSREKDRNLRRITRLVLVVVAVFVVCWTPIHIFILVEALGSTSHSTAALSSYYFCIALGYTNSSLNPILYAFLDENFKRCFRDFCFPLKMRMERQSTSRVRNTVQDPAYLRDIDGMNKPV

Turning to `CN(C(=O)Cc1ccc2c(c1)NC(=O)CS2)[C@H](CN1CC[C@H](O)C1)c1cccc(C(=O)O)c1` [Example 154, 3-((S)-2-((S)-3-hydroxypyrrolidin-1-yl)-1-(N-methyl-2-(3-oxo-3,4-dihydro-2H-benzo[b][1,4]thiazin-6-yl)acetamido)ethyl)benzoic acid], the EC50 (commonly the concentration at which the effect is half-maximal) is at most 50 nM. Under `CN(C(=O)Cc1ccc2c(c1)NC(=O)CO2)[C@H](CN1CC[C@H](O)C1)c1cccc(C(=O)O)c1` [Example 155, 3-((S)-2-((S)-3-hydroxypyrrolidin-1-yl)-1-(N-methyl-2-(3-oxo-3,4-dihydro-2H-benzo[b][1,4]oxazin-6-yl)acetamido)ethyl)benzoic acid] stands at most 50 nM. For `CN(C(=O)Cc1ccc2c(c1)NC(=O)C2)[C@H](CN1CC[C@H](O)C1)c1cccc(C#N)c1` [Example 156, N-((S)-1-(3-cyanophenyl)-2-((S)-3-hydroxypyrrolidin-1-yl)ethyl)-N-methyl-2-(2-oxoindolin-6-yl)acetamide] the value was at most 50 nM.

In the case of `O=C1Cc2cc(CC(=O)N[C@H](CN3CC[C@H](O)C3)c3ccccc3)ccc2N1` [Example 157, N-((S)-2-((S)-3-hydroxypyrrolidin-1-yl)-1-phenylethyl)-2-(2-oxoindolin-5yl)acetamide], the EC50 was at most 50 nM. Under `CN(C(=O)Cc1ccc2c(c1)NC(=O)C2)[C@H](CN1CC[C@H](O)C1)c1cccc(OCC(=O)O)c1` [Example 159, 2-(3-((S)-2-((S)-3-hydroxypyrrolidin-1-yl)-1-(N-methyl-2-(2-oxoindolin-6-yl)acetamido)ethyl)phenoxy)acetic acid] stands at most 50 nM; under `CN(C(=O)Cc1ccc2oc(=O)[nH]c2c1)[C@H](CN1CC[C@H](O)C1)c1cccc(C(N)=O)c1` [Example 160, 3-((S)-2-((S)-3-hydroxypyrrolidin-1-yl)-1-(N-methyl-2-(2-oxo-2,3-dihydrobenzo[d]oxazol-5-yl)acetamido)ethyl)benzamide], at most 50 nM; under `CN(C(=O)Cc1ccc2c(c1)NC(=O)C2)[C@H](CN1CC[C@H](F)C1)c1cccc(OCC(=O)NS(C)(=O)=O)c1` [Example 162, N-((S)-2-((S)-3-fluoropyrrolidin-1-yl)-1-(3-(2-(methylsulfonamido)-2-oxoethoxy)phenyl)ethyl)-N-methyl-2-(2-oxoindolin-6-yl)acetamide], at most 50 nM.

For the compound `CN(C(=O)Cc1ccc2ncc(=O)[nH]c2c1)[C@H](CN1CC[C@H](O)C1)c1cccc(C(N)=O)c1` [Example 164, 3-((S)-2-((S)-3-hydroxypyrrolidin-1-yl)-1-(N-methyl-2-(3-oxo-3,4-dihydroquinoxalin-6-yl)acetamido)ethyl)benzamide], the EC50 is at most 50 nM.

As to `CN(C(=O)Cc1ccc2c(c1)NC(=O)C2)[C@H](CN1CC[C@H](F)C1)c1cccc(C(N)=O)c1` [Example 165, 3-((S)-2-((S)-3-fluoropyrrolidin-1-yl)-1-(N-methyl-2-(2-oxoindolin-6-yl)acetamido)ethyl)benzamide], the EC50 fell in the range of 101 to 1000 nM. On to `CN(C(=O)Cc1ccc2sc(=O)[nH]c2c1)[C@H](CN1CC[C@H](O)C1)c1cccc(OCC(=O)O)c1` [Example 166, 2-(3-((S)-2-((S)-3-hydroxypyrrolidin-1-yl)-1-(N-methyl-2-(2-oxo-2,3-dihydrobenzo [d]thiazol-5-yl)acetamido)ethyl)phenoxy)acetic acid], for which the EC50 is at most 50 nM.

In turn, `CN(C(=O)Cc1ccc2c(c1)NC(=O)CO2)[C@H](CN1CC[C@H](O)C1)c1cccc(OCC(=O)O)c1` [Example 167, 2-(3-((S)-2-((S)-3-hydroxypyrrolidin-1-yl)-1-(N-methyl-2-(3-oxo-3,4-dihydro-2H-benzo[b][1,4]oxazin-6-yl)acetamido)ethyl)phenoxy)acetic acid] registered an EC50 of at most 50 nM. On to `CN(C(=O)Cc1ccc2c(c1)NC(=O)CS2(=O)=O)[C@H](CN1CC[C@H](O)C1)c1cccc(OCC(N)=O)c1` [Example 168, N-((S)-1-(3-(2-amino-2-oxoethoxy)phenyl)-2-((S)-3-hydroxypyrrolidin-1-yl)ethyl)-2-(1,1-dioxido-3-oxo-3,4-dihydro-2H-benzo[b][1,4]thiazin-6-yl)-N-methylacetamide], for which the EC50 is at most 50 nM. For `CN(C(=O)Cc1ccc2c(c1)CC(=O)N2)[C@H](CN1CC[C@H](O)C1)c1cccc(OCC(=O)O)c1` [Example 169, 2-(3-((S)-2-((S)-3-hydroxypyrrolidin-1-yl)-1-(N-methyl-2-(2-oxoindolin-5-yl)acetamido)ethyl)phenoxy)acetic acid] the value was at most 50 nM; for `CN(C(=O)Cc1ccc2sc(=O)[nH]c2c1)[C@H](CN1CC[C@H](O)C1)c1cccc(OCC(N)=O)c1` [Example 170, N-((S)-1-(3-(2-amino-2-oxoethoxy)phenyl)-2-((S)-3-hydroxypyrrolidin-1-yl)ethyl)-N-methyl-2-(2-oxo-2,3-dihydrobenzo[d]thiazol-5-yl)acetamide], at most 50 nM. For `CN(C(=O)Cc1ccc2ncc(=O)[nH]c2c1)[C@H](CN1CC[C@H](O)C1)c1cccc(OCC(=O)O)c1` [Example 171, 2-(3-((S)-2-((S)-3-hydroxypyrrolidin-1-yl)-1-(N-methyl-2-(3-oxo-3,4-dihydroquinoxalin-6-yl)acetamido)ethyl)phenoxy)acetic acid] the value was at most 50 nM; for `CN(C(=O)Cc1ccc2c(c1)NC(=O)CS2)[C@H](CN1CC[C@H](O)C1)c1cccc(OCC(=O)O)c1` [Example 172, 2-(3-((S)-2-((S)-3-hydroxypyrrolidin-1-yl)-1-(N-methyl-2-(3-oxo-3,4-dihydro-2H-benzo[b][1,4]thiazin-6-yl)acetamido)ethyl)phenoxy)acetic acid], at most 50 nM. Regarding `CN(C(=O)Cc1ccc2c(c1)NC(=O)CO2)[C@H](CN1CC[C@H](O)C1)c1cccc(OCC(N)=O)c1` [Example 173, N-((S)-1-(3-(2-amino-2-oxoethoxy)phenyl)-2-((S)-3-hydroxypyrrolidin-1-yl)ethyl)-N-methyl-2-(3-oxo-3,4-dihydro-2H-benzo[b][1,4]oxazin-6-yl)acetamide], the EC50 was at most 50 nM. With `CN(C(=O)Cc1ccc2c(c1)NC(=O)CS2(=O)=O)[C@H](CN1CC[C@H](O)C1)c1cccc(OCC(=O)NS(C)(=O)=O)c1` [Example 174, 2-(1,1-dioxido-3-oxo-3,4-dihydro-2H-benzo[b][1,4]thiazin-6-yl)-N-((S)-2-((S)-3-hydroxypyrrolidin-1-yl)-1-(3-(2-(methylsulfonamido)-2-oxoethoxy)phenyl)ethyl)-N-methylacetamide], the concentration giving a half-maximal response (EC50) was at most 50 nM. For `CN(C(=O)Cc1ccc2c(c1)NC(=O)CS2)[C@H](CN1CC[C@H](O)C1)c1cccc(OCC(N)=O)c1` [Example 175, N-((S)-1-(3-(2-amino-2-oxoethoxy)phenyl)-2-((S)-3-hydroxypyrrolidin-1-yl)ethyl)-N-methyl-2-(3-oxo-3,4-dihydro-2H-benzo[b][1,4]thiazin-6-yl)acetamide] the value was at most 50 nM; for `CN(C(=O)Cc1ccc2oc(=O)[nH]c2c1)[C@H](CN1CC[C@H](O)C1)c1cccc(C(=O)O)c1` [Example 176, 3-((S)-2-((S)-3-hydroxypyrrolidin-1-yl)-1-(N-methyl-2-(2-oxo-2,3-dihydrobenzo[d]oxazol-5-yl)acetamido)ethyl)benzoic acid], at most 50 nM. Under `CN(C(=O)Cc1ccc2c(c1)NC(=O)C2)[C@H](CN1CC[C@H](O)C1)c1cccc(C(=O)NS(C)(=O)=O)c1` [Example 177, 3-((S)-2-((S)-3-hydroxypyrrolidin-1-yl)-1-(N-methyl-2-(2-oxoindolin-6-yl)acetamido)ethyl)-N-(methylsulfonyl)benzamide] stands at most 50 nM. Consider `CN(C(=O)Cc1ccc2c(c1)NC(=O)C2)[C@H](CN1CC[C@H](O)C1)c1cccc(-c2noc(C(F)(F)F)n2)c1` [Example 179, N-((S)-2-((S)-3-hydroxypyrrolidin-1-yl)-1-(3-(5-(trifluoromethyl)-1,2,4-oxadiazol-3-yl)phenyl)ethyl)-N-methyl-2-(2-oxoindolin-6-yl)acetamide], for which the EC50 was at most 50 nM. Under `C#Cc1cccc([C@@H](CN2CC[C@H](O)C2)N(C)C(=O)Cc2ccc3c(c2)NC(=O)C3)c1` [Example 180, N-((S)-1-(3-ethynylphenyl)-2-((S)-3-hydroxypyrrolidin-1-yl)ethyl)-N-methyl-2-(2-oxoindolin-6-yl)acetamide] stands at most 50 nM; under `Cc1nc(-c2cccc([C@@H](CN3CC[C@H](O)C3)N(C)C(=O)Cc3ccc4c(c3)NS(=O)(=O)C4)c2)no1` [Example 181, 2-(2,2-dioxido-1,3-dihydrobenzo[c]isothiazol-6-yl)-N-((S)-2-((S)-3-hydroxypyrrolidin-1-yl)-1-(3-(5-methyl-1,2,4-oxadiazol-3-yl)phenyl)ethyl)-N-methylacetamide], at most 50 nM; under `C#Cc1cccc([C@@H](CN2CC[C@H](O)C2)N(C)C(=O)Cc2ccc3c(c2)NS(=O)(=O)C3)c1` [Example 182, 2-(2,2-dioxido-1,3-dihydrobenzo[c]isothiazol-6-yl)-N-((S)-1-(3-ethynylphenyl)-2-((S)-3-hydroxypyrrolidin-1-yl)ethyl)-N-methylacetamide], at most 50 nM. Under `Cc1nc(-c2cccc([C@@H](CN3CC[C@H](O)C3)N(C)C(=O)Cc3ccc4sc(=O)[nH]c4c3)c2)no1` [Example 183, N-((S)-2-((S)-3-hydroxypyrrolidin-1-yl)-1-(3-(5-methyl-1,2,4-oxadiazol-3-yl)phenyl)ethyl)-N-methyl-2-(2-oxo-2,3-dihydrobenzo[d]thiazol-5-yl)acetamide] stands at most 50 nM; under `CN(C(=O)Cc1ccc2sc(=O)[nH]c2c1)[C@H](CN1CC[C@H](O)C1)c1cccc(-c2noc(C(F)(F)F)n2)c1` [Example 184, N-((S)-2-((S)-3-hydroxypyrrolidin-1-yl)-1-(3-(5-(trifluoromethyl)-1,2,4-oxadiazol-3-yl)phenyl)ethyl)-N-methyl-2-(2-oxo-2,3-dihydrobenzo[d]thiazol-5-yl)acetamide], at most 50 nM. Under `CN(C(=O)Cc1ccc2c(c1)NC(=O)C2)[C@H](CN1CC[C@H](O)C1)c1cccc(-c2ncon2)c1` [Example 185, N-((S)-1-(3-(1,2,4-oxadiazol-3-yl)phenyl)-2-((S)-3-hydroxypyrrolidin-1-yl)ethyl)-N-methyl-2-(2-oxoindolin-6-yl)acetamide 2,2,2-trifluoroacetate] stands at most 50 nM.
